Assay results taken from PubChem BioAssay (NCI).
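In this assay, cells in 96-well plates receive the compound at five concentrations for 48 hours. Endpoints are linearly interpolated between the surrounding concentrations. GI50 marks 50% less growth. TGI denotes the concentration required for complete inhibition of growth.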

Legend:
Assay in all cases: NCI anticancer screen, dose series, 48 h
CCRF-CEM leukemia = test system: CCRF-CEM leukemia
OVCAR-4 ovarian = test system: OVCAR-4 ovarian
A498 renal = test system: A498 renal
HCT-116 colon = test system: HCT-116 colon
ACHN renal = test system: ACHN renal
UACC-257 melanoma = test system: UACC-257 melanoma
HOP-62 NSCLC = test system: HOP-62 NSCLC
HOP-92 NSCLC = test system: HOP-92 NSCLC
SF-539 CNS = test system: SF-539 CNS
786-0 renal = test system: 786-0 renal

SMILES | GI50 (CCRF-CEM leukemia) | TGI (CCRF-CEM leukemia) | GI50 (OVCAR-4 ovarian) | TGI (OVCAR-4 ovarian) | GI50 (A498 renal) | TGI (A498 renal) | GI50 (HCT-116 colon) | TGI (HCT-116 colon) | GI50 (ACHN renal) | TGI (ACHN renal) | GI50 (UACC-257 melanoma) | TGI (UACC-257 melanoma) | GI50 (HOP-62 NSCLC) | TGI (HOP-62 NSCLC) | GI50 (HOP-92 NSCLC) | TGI (HOP-92 NSCLC) | GI50 (SF-539 CNS) | TGI (SF-539 CNS) | GI50 (786-0 renal) | TGI (786-0 renal)
COCCOC(=O)CCn1cc(F)c(=O)[nH]c1=O | 16 mg/L | > 150 mg/L | 20.4 mg/L | > 150 mg/L | 0.989 mg/L | > 150 mg/L | 4.54 mg/L | > 150 mg/L | 8.67 mg/L | > 150 mg/L | 26.5 mg/L | > 150 mg/L | 17.3 mg/L | > 150 mg/L | 77.6 mg/L | > 150 mg/L | 7.42 mg/L | > 150 mg/L | 8.12 mg/L | > 150 mg/L
N#CCc1nc2c(s1)C(=O)c1ccccc1C2=O |  |  |  | 31.1 µM |  | 59.1 µM |  | 27.6 µM |  | 27.4 µM |  | 28.5 µM |  | 28.3 µM |  | 34.4 µM |  | 28 µM |  | 30.1 µM
COc1cc(SC)ccc1C(=O)N1CCCC(C)C1 (stereo not drawn) | > 100 µM | > 100 µM | 58.6 µM | > 100 µM | 34.4 µM | > 100 µM | > 100 µM | > 100 µM | > 100 µM | > 100 µM | 78.9 µM | > 100 µM | > 100 µM | > 100 µM | 95.7 µM | > 100 µM | > 100 µM | > 100 µM | > 100 µM | > 100 µM
COc1ccc(C2CC(C)=Nc3c([nH]c(=S)[nH]c3=O)N2)cc1 (stereo not drawn) |  | 54.4 µM |  |  |  | 36.9 µM |  | 30.1 µM |  | 36.1 µM |  | 33.9 µM |  | 68.5 µM |  | > 100 µM |  | 50.8 µM |  | 31.2 µM
CN1C=CN(Cc2ccc(-c3ccccn3)nc2)[CH-]1.CN1C=CN(Cc2ccc(-c3ccccn3)nc2)[CH-]1.[Au+3] | 0.0834 µM | 13.4 µM | 0.769 µM | 14.1 µM | 8.53 µM | > 68.8 µM | 2.4 µM | 10.9 µM | 14.6 µM | > 100 µM | 1.52 µM | 7.47 µM | 8.31 µM | 25.8 µM | 3.2 µM | 10.2 µM | 2.34 µM | 10.3 µM | 6.14 µM | > 100 µM
CCCCCCCCSC(SCCCCCCCC)=C1C(=O)N(c2ccccc2)N=C1C |  | 44 µM |  |  |  | 92.7 µM |  | 38.7 µM |  | > 100 µM |  | 93.1 µM |  | > 100 µM |  | 77.8 µM |  |  |  | > 100 µM
CCCC/C(C)=N/NC(N)=S |  | > 100 µM |  |  |  | > 100 µM |  | > 100 µM |  | > 100 µM |  | > 100 µM |  | > 100 µM |  | > 100 µM |  | > 100 µM |  | > 100 µM
COS(=O)CCOC(=O)c1ccccc1SSc1ccccc1C(=O)OCCS(=O)OC (stereo not drawn) |  | > 100 µM |  | 34.9 µM |  | > 100 µM |  |  |  | > 100 µM |  | 38.8 µM |  | > 100 µM |  | 74.2 µM |  | 65.6 µM |  | 38.2 µM
COc1ccc2c(c1)[n+]([O-])c(-c1ccc(Cl)c(Cl)c1)c(N)[n+]2[O-] |  |  |  | > 100 µM |  | > 100 µM |  | > 100 µM |  | > 100 µM |  | 46.4 µM |  | > 100 µM |  | > 100 µM |  | 68.6 µM |  | > 100 µM
